Assay [1] concerns the target Human immunodeficiency virus type 1 protease (Human immunodeficiency virus 1, UniProt Q72874). The assay can be described thus: Inhibitory activity against HIV-1 protease.
For the next assay, the system named is MT4. In words: Compound was tested for the inhibition of HIV-1 in MT-4 human T-lymphoid cells infected with IIIB isolate. The format is functional. The settings on record: read-out: ID50 (the source's name).

The Ki is a dissociation constant, usually derived from enzyme kinetics or from competition with a known ligand. Read a high Ki as lower affinity.

In turn, `CC(C)CN(C[C@@H](O)[C@H](Cc1ccccc1)NC(=O)O[C@H]1CCOC1)S(=O)(=O)c1ccc(N)cc1` yielded a Ki in assay [1] of 1.6 nM. Also, the IC50 with MT4 worked out at 15 nM.

As to `CC(C)CN(C[C@@H](O)[C@H](Cc1ccccc1)NC(=O)O[C@H]1CO[C@H]2OCC[C@H]21)S(=O)(=O)c1ccc(N)cc1`, the IC50 with MT4 worked out at 4.5 nM.

On to `Cc1ccc(S(=O)(=O)N(CC(C)C)C[C@@H](O)[C@H](Cc2ccccc2)NC(=O)O[C@H]2CO[C@H]3OCC[C@H]32)cc1`, for which, in assay [1], the Ki amounted to 1.2 nM. For the same compound, in the assay with MT4, the IC50 came to 3.5 nM.

`COc1ccc(S(=O)(=O)N(CC(C)C)C[C@@H](O)[C@H](Cc2ccccc2)NC(=O)O[C@H]2CCOC2)cc1`: the Ki in assay [1] is 1.5 nM. For the same compound, the IC50 in the assay with MT4 is 12 nM.

For `COc1ccc(S(=O)(=O)N(CC(C)C)C[C@@H](O)[C@H](Cc2ccccc2)NC(=O)O[C@H]2CCS(=O)(=O)C2)cc1`, the affinity in assay [1] corresponds to a Ki of 1.2 nM. For the same compound, the IC50 in the assay on MT4 stood at 19 nM.

In assay [1], `COc1ccc(S(=O)(=O)N(CC(C)C)C[C@@H](O)[C@H](Cc2ccccc2)NC(=O)O[C@H]2CCSC2)cc1` displayed a Ki of 2.5 nM. Also, the IC50 with MT4 was 47 nM.

For `COc1ccc(S(=O)(=O)N(CC(C)C)C[C@@H](O)[C@H](Cc2ccccc2)NC(=O)O[C@@H]2CCS(=O)(=O)[C@@H]2C(C)C)cc1`, in assay [1], the Ki came out at 1.4 nM. Also, the IC50 in the assay with MT4 is 18 nM.

`CC(C)CN(C[C@@H](O)[C@H](Cc1ccccc1)NC(=O)O[C@@H]1CCS(=O)(=O)[C@@H]1C(C)C)S(=O)(=O)c1ccc(N)cc1` returned a Ki in assay [1] of 1.5 nM. Moreover, the IC50 with MT4 stood at 40 nM.

In assay [1], `COc1ccc(S(=O)(=O)N(CC(C)C)C[C@@H](O)[C@H](Cc2ccccc2)NC(=O)O[C@@H]2CO[C@@H]3OCCC[C@@H]32)cc1` gave a Ki of 2.2 nM. In the assay on MT4, the IC50 was 4.5 nM.

The compound `COc1ccc(S(=O)(=O)N(CC(C)C)C[C@@H](O)[C@H](Cc2ccccc2)NC(=O)O[C@H]2CO[C@H]3OCC[C@H]32)cc1` yielded a Ki in assay [1] of 1.1 nM. Besides, the IC50 in the assay with MT4 came to 1.4 nM.

The values above are taken from ChEMBL document CHEMBL1131511, “Potent HIV protease inhibitors incorporating high-affinity P2-ligands and (R)-(hydroxyethylamino)sulfonamide isostere” (Bioorg Med Chem Lett, 1998).
